Measured values taken from US20250352488A1, “IONIZABLE LIPIDS AND NANOPARTICLES COMPRISING SAME” (MANA BIO LTD., priority 2022, published 2025).

Columns and labels:
cells = assay: cell-penetration of LNPs and intracellular delivery of mRNA; type: cell-based; conditions: LNPs containing the compound as ionizable lipid; compared to a similar composition comprising Dlin-MC3-DMA
Experimental: The inventors determined cell-penetration of the exemplary LNPs and intracellular delivery of mRNA.
More specifically, particles were incubated on cells for 16-24 hrs at 37° C. under 5% CO2 and expression levels were measured. Formulations were compared to Lipofectamine control and to MC3 control, as well as to untreated controls.

BALB/c mouse = assay: in vivo expression distribution of encapsulated mRNA F-LUC (IVIS imaging, ex-vivo tissue analysis); conditions: intravenous, 13 μg/mouse
Experimental: (§1) The inventors determined the expression distribution of the exemplary LNPs in vivo by assessing expression of the encapsulated mRNA (mRNA F-LUC). The LNPS of the invention encapsulating mRNA F-LUC have been injected intravenously into a BALB/c mouse, at a dosage of 13 μg/mouse (0.52-0.65 mg/kg). In-vivo imaging were done by IVIS imaging. Ex-vivo tissue analysis was done for lung, heart, spleen, kidney, and liver using IVIS. Histology assessment was determined by H&E staining with pathologist report for toxicity. Histology assessment concluded normal morphology without any treatment related pathological changes.
as §1, with “LNPs” for “LNPS”

lung cells = assay: cell-based studies of specificity to lung cells; conditions: LNPs containing the compound as ionizable lipid; compared to a similar composition comprising Dlin-MC3-DMA

With `CCCCCCCCCOCC(O)CN(CCN(CC(O)COCCCCCCCCC)CC(O)COCCCCCCCCC)CC(O)COCCCCCCCCC` (centres unmarked) [MB-77] the internalization efficiency (cells) was “superior internalization efficiency”.

For `CCCCCCCCCCCCOCC(O)CN(CCCCCCCCN(CC(O)COCCCCCCCCCCCC)CC(O)COCCCCCCCCCCCC)CC(O)COCCCCCCCCCC` (centres unmarked) [MB-205], the internalization efficiency (cells) was “superior internalization efficiency”.

`CCCCCCCCOCC(O)CN(CCCCN(CC(O)COCCCCCCCC)CC(O)COCCCCCCCC)CC(O)COCCCCCCCC` (centres unmarked) [MB-208] was tested, and the internalization efficiency (cells) was “superior internalization efficiency”.

With `CCCCCCCCOCC(O)CN(CCOCCOCCN(CC(O)COCCCCCCCC)CC(O)COCCCCCCCC)CC(O)COCCCCCCCC` (centres unmarked) [MB-212] the internalization efficiency (cells) was “superior internalization efficiency”, the “lung specificity of the LNP” value (BALB/c mouse) was “enhanced lung specificity” and the “specificity to the lung cells” value (lung cells) was “enhanced specificity to the lung cells”.

`CCCCCCCCOCC(O)CN(CCCCCCCCN(CC(O)COCCCCCCCC)CC(O)COCCCCCCCC)CC(O)COCCCCCCCC` (centres unmarked) [MB-222] was tested, and the “lung specificity of the LNP” value (BALB/c mouse) was “enhanced lung specificity” and the “specificity to the lung cells” value (lung cells) was “enhanced specificity to the lung cells”.
